Measurements published in patent US5053070A, “Pyrimidine derivatives, preparation processes thereof, herbicide containing the same, and herbicidal compositions containing the same along with other active ingredient” (Mitsui Toatsu Chemicals, Incorporated, priority 1988, dated 1991).

Legend:
rice [1] = experiment: Treatment of soil under submerged condition, post-emergence (Test 5), injury; format: in vivo; details: 30 g ai/a granule, 30 days later
How it was run: (§1)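 Pots of submerged soil were sown with weed seeds or tubers, and 2-3-leaf rice seedling pairs were transplanted. At barnyardgrass two-leaf stage a granule formulation was applied. Weed emergence and rice injury were rated 30 days later as damage degrees.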

green foxtail = experiment: Upland foliar application test (Test 3); format: in vivo; details: 30 g ai/a, foliar spray at 2-3 leaves, 30th day
How it was run: (§2)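 Foliar post-emergence spray: diluted emulsifiable formulation applied at 5 l/are by pressure ULV sprayer once plants in upland-soil greenhouse pots reached 2-3 leaves. Degree of weed damage and crop injury rated on day 30 post-application.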

large crabgrass = experiment: Upland foliar application test (Test 3); format: in vivo; details: 30 g ai/a, foliar spray at 2-3 leaves, 30th day
How it was run: as §2

common lambsquarters = experiment: Upland foliar application test (Test 3); format: in vivo; details: 30 g ai/a, foliar spray at 2-3 leaves, 30th day
How it was run: as §2

barnyardgrass [2] = experiment: Upland foliar application test (Test 3); format: in vivo; details: 30 g ai/a, foliar spray at 2-3 leaves, 30th day
How it was run: as §2

foxtail meadow = experiment: Upland foliar application test (Test 3); format: in vivo; details: 30 g ai/a, foliar spray at 2-3 leaves, 30th day
How it was run: as §2

redroot pigweed = experiment: Upland foliar application test (Test 3); format: in vivo; details: 30 g ai/a, foliar spray at 2-3 leaves, 30th day
How it was run: as §2

johnsongrass = experiment: Upland foliar application test (Test 3); format: in vivo; details: 30 g ai/a, foliar spray at 2-3 leaves, 30th day
How it was run: as §2

[3] = test system: ALS (acetolactate syntase); experiment: ALS enzyme assay (Test 1); format: biochemical, pea; details: 1,000 ppm (0.5 mg/0.5 ml)
How it was run: (§3)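 Partially purified ALS from dark-grown pea and barnyardgrass seedlings incubated 1 h at 30° C with pyruvate, TPP, MgCl2 and FAD. Compounds tested at 1,000 ppm (0.5 mg/0.5 ml). Acetoin formed detected colorimetrically at 525 nm via creatine/α-naphthol, relative to blank and acid-stopped controls.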

peanut = experiment: Upland foliar application test (Test 3), crop injury; format: in vivo; details: 30 g ai/a, foliar spray at 2-3 leaves, 30th day
How it was run: as §2

soybean = experiment: as above; format: in vivo; details: 30 g ai/a, foliar spray at 2-3 leaves, 30th day
How it was run: as §2

cotton = experiment: as above; format: in vivo; details: 30 g ai/a, foliar spray at 2-3 leaves, 30th day
How it was run: as §2

rice [4] = experiment: Treatment of soil under submerged condition, pre-emergence (Test 4), injury; format: in vivo; details: 30 g ai/a granule, 30 days later
How it was run: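 Wagner pots of soil were seeded or planted with weed seeds or tubers under flooding, then 2–3-leaf rice seedling pairs were transplanted and grown in a greenhouse. One day later, before weed emergence, pots received a granule of the test composition at a predetermined amount. Weed emergence and rice injury were scored 30 days later.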

Sagittaria pygmaea = experiment: Treatment of soil under submerged condition, post-emergence (Test 5); format: in vivo; details: 30 g ai/a granule, 30 days later
How it was run: as §1

barnyardgrass [5] = experiment: as above; format: in vivo; details: 30 g ai/a granule, post-emergence (barnyardgrass two-leaf stage), 30 days later
How it was run: as §1

bulrush = experiment: as above; format: in vivo; details: 30 g ai/a granule, 30 days later
How it was run: as §1

[6] = test system: ALS (acetolactate syntase); experiment: ALS enzyme assay (Test 1); format: biochemical, barnyardgrass; details: 1,000 ppm (0.5 mg/0.5 ml)
How it was run: as §3

COc1cc(OC)nc(Oc2ccccc2C=NOCC=Cc2c(F)cccc2F)n1 [compound 33]
Injury Rice (rice [1]): 1 (71-90 (Slight damages))
Herbicidal effects Green foxtail (green foxtail): 5 (0-5 (Death))
Herbicidal effects Large crabgrass (large crabgrass): 5 (0-5 (Death))
Herbicidal effects Common lambsquarters (common lambsquarters): 4 (6-10 (Severe damages))
Herbicidal effects Barnyardgrass (barnyardgrass [2]): 5 (0-5 (Death))
Herbicidal effects Foxtail meadow (foxtail meadow): 5 (0-5 (Death))
Herbicidal effects Redroot pigweed (redroot pigweed): 4 (6-10 (Severe damages))
Herbicidal effects Johnsongrass (johnsongrass): 5 (0-5 (Death))
Inhibitory activity (%) Pea [3]: 0%
Injury Peanut (peanut): 0 (91-100 (No damages))
Injury Soybean (soybean): 0 (91-100 (No damages))
Injury Cotton (cotton): 0 (91-100 (No damages))
Injury Rice (rice [4]): 0 (91-100 (No damages))
Herbicidal effects Sagittaria Pygmaea (Sagittaria pygmaea): 4 (6-10 (Severe damages))
Herbicidal effects Barnyardgrass (barnyardgrass [5]): 5 (0-5 (Death))
Herbicidal effects Bulrush (bulrush): 5 (0-5 (Death))
Inhibitory activity (%) Barnyardgrass [6]: 91%

COc1cc(OC)nc(Oc2ccccc2C=NOCC=Cc2ccccc2)n1 [Compound No. 9]
Injury Rice (rice [1]): 0 (91-100 (No damages))
Herbicidal effects Green foxtail (green foxtail): 5 (0-5 (Death))
Herbicidal effects Large crabgrass (large crabgrass): 5 (0-5 (Death))
Herbicidal effects Common lambsquarters (common lambsquarters): 4 (6-10 (Severe damages))
Herbicidal effects Barnyardgrass (barnyardgrass [2]): 5 (0-5 (Death))
Herbicidal effects Foxtail meadow (foxtail meadow): 5 (0-5 (Death))
Herbicidal effects Redroot pigweed (redroot pigweed): 5 (0-5 (Death))
Herbicidal effects Johnsongrass (johnsongrass): 5 (0-5 (Death))
Inhibitory activity (%) Pea [3]: 11%
Injury Peanut (peanut): 0 (91-100 (No damages))
Injury Soybean (soybean): 0 (91-100 (No damages))
Injury Cotton (cotton): 0 (91-100 (No damages))
Injury Rice (rice [4]): 1 (71-90 (Slight damages))
Herbicidal effects Sagittaria Pygmaea (Sagittaria pygmaea): 5 (0-5 (Death))
Herbicidal effects Barnyardgrass (barnyardgrass [5]): 5 (0-5 (Death))
Herbicidal effects Bulrush (bulrush): 5 (0-5 (Death))
Inhibitory activity (%) Barnyardgrass [6]: 95%

COc1cc(OC)nc(Oc2ccccc2C=NOCC=Cc2ccc(Cl)c(Cl)c2)n1 [compound 31]
Injury Rice (rice [1]): 0 (91-100 (No damages))
Herbicidal effects Green foxtail (green foxtail): 4 (6-10 (Severe damages))
Herbicidal effects Large crabgrass (large crabgrass): 4 (6-10 (Severe damages))
Herbicidal effects Common lambsquarters (common lambsquarters): 4 (6-10 (Severe damages))
Herbicidal effects Barnyardgrass (barnyardgrass [2]): 4 (6-10 (Severe damages))
Herbicidal effects Foxtail meadow (foxtail meadow): 4 (6-10 (Severe damages))
Herbicidal effects Redroot pigweed (redroot pigweed): 3 (11-40 (Medium damages))
Herbicidal effects Johnsongrass (johnsongrass): 5 (0-5 (Death))
Inhibitory activity (%) Pea [3]: 0%
Injury Peanut (peanut): 0 (91-100 (No damages))
Injury Soybean (soybean): 0 (91-100 (No damages))
Injury Cotton (cotton): 0 (91-100 (No damages))
Injury Rice (rice [4]): 0 (91-100 (No damages))
Herbicidal effects Sagittaria Pygmaea (Sagittaria pygmaea): 4 (6-10 (Severe damages))
Herbicidal effects Barnyardgrass (barnyardgrass [5]): 5 (0-5 (Death))
Herbicidal effects Bulrush (bulrush): 4 (6-10 (Severe damages))
Inhibitory activity (%) Barnyardgrass [6]: 90%

COc1cc(OC)nc(Oc2ccccc2C=NOCC#Cc2ccccc2)n1 [compound 42]
Injury Rice (rice [1]): 0 (91-100 (No damages))
Herbicidal effects Green foxtail (green foxtail): 5 (0-5 (Death))
Herbicidal effects Large crabgrass (large crabgrass): 3 (11-40 (Medium damages))
Herbicidal effects Common lambsquarters (common lambsquarters): 4 (6-10 (Severe damages))
Herbicidal effects Barnyardgrass (barnyardgrass [2]): 5 (0-5 (Death))
Herbicidal effects Foxtail meadow (foxtail meadow): 5 (0-5 (Death))
Herbicidal effects Redroot pigweed (redroot pigweed): 5 (0-5 (Death))
Herbicidal effects Johnsongrass (johnsongrass): 5 (0-5 (Death))
Inhibitory activity (%) Pea [3]: 0%
Injury Peanut (peanut): 0 (91-100 (No damages))
Injury Soybean (soybean): 0 (91-100 (No damages))
Injury Cotton (cotton): 0 (91-100 (No damages))
Injury Rice (rice [4]): 0 (91-100 (No damages))
Herbicidal effects Sagittaria Pygmaea (Sagittaria pygmaea): 5 (0-5 (Death))
Herbicidal effects Barnyardgrass (barnyardgrass [5]): 5 (0-5 (Death))
Herbicidal effects Bulrush (bulrush): 4 (6-10 (Severe damages))
Inhibitory activity (%) Barnyardgrass [6]: 93%

COc1cc(OC)nc(Oc2ccccc2C=NOC2CCCCC2)n1 [Compound No. 3]
Injury Rice (rice [1]): 0 (91-100 (No damages))
Herbicidal effects Green foxtail (green foxtail): 5 (0-5 (Death))
Herbicidal effects Large crabgrass (large crabgrass): 4 (6-10 (Severe damages))
Herbicidal effects Common lambsquarters (common lambsquarters): 4 (6-10 (Severe damages))
Herbicidal effects Barnyardgrass (barnyardgrass [2]): 5 (0-5 (Death))
Herbicidal effects Foxtail meadow (foxtail meadow): 5 (0-5 (Death))
Herbicidal effects Redroot pigweed (redroot pigweed): 4 (6-10 (Severe damages))
Herbicidal effects Johnsongrass (johnsongrass): 5 (0-5 (Death))
Inhibitory activity (%) Pea [3]: 0%
Injury Peanut (peanut): 0 (91-100 (No damages))
Injury Soybean (soybean): 0 (91-100 (No damages))
Injury Cotton (cotton): 0 (91-100 (No damages))
Injury Rice (rice [4]): 0 (91-100 (No damages))
Herbicidal effects Sagittaria Pygmaea (Sagittaria pygmaea): 3 (11-40 (Medium damages))
Herbicidal effects Barnyardgrass (barnyardgrass [5]): 3 (11-40 (Medium damages))
Herbicidal effects Bulrush (bulrush): 3 (11-40 (Medium damages))
Inhibitory activity (%) Barnyardgrass [6]: 22%

CCc1ccc(C=CCON=Cc2ccccc2Oc2nc(OC)cc(OC)n2)cc1 [compound 37]
Injury Rice (rice [1]): 1 (71-90 (Slight damages))
Herbicidal effects Green foxtail (green foxtail): 5 (0-5 (Death))
Herbicidal effects Large crabgrass (large crabgrass): 5 (0-5 (Death))
Herbicidal effects Common lambsquarters (common lambsquarters): 4 (6-10 (Severe damages))
Herbicidal effects Barnyardgrass (barnyardgrass [2]): 4 (6-10 (Severe damages))
Herbicidal effects Foxtail meadow (foxtail meadow): 5 (0-5 (Death))
Herbicidal effects Redroot pigweed (redroot pigweed): 4 (6-10 (Severe damages))
Herbicidal effects Johnsongrass (johnsongrass): 5 (0-5 (Death))
Inhibitory activity (%) Pea [3]: 0%
Injury Peanut (peanut): 0 (91-100 (No damages))
Injury Soybean (soybean): 0 (91-100 (No damages))
Injury Cotton (cotton): 0 (91-100 (No damages))
Injury Rice (rice [4]): 0 (91-100 (No damages))
Herbicidal effects Sagittaria Pygmaea (Sagittaria pygmaea): 4 (6-10 (Severe damages))
Herbicidal effects Barnyardgrass (barnyardgrass [5]): 5 (0-5 (Death))
Herbicidal effects Bulrush (bulrush): 5 (0-5 (Death))
Inhibitory activity (%) Barnyardgrass [6]: 93%

COc1cc(OC)nc(Oc2ccccc2C=NOCCc2ccccc2)n1 [compound 23]
Injury Rice (rice [1]): 0 (91-100 (No damages))
Herbicidal effects Green foxtail (green foxtail): 4 (6-10 (Severe damages))
Herbicidal effects Large crabgrass (large crabgrass): 3 (11-40 (Medium damages))
Herbicidal effects Common lambsquarters (common lambsquarters): 3 (11-40 (Medium damages))
Herbicidal effects Barnyardgrass (barnyardgrass [2]): 3 (11-40 (Medium damages))
Herbicidal effects Foxtail meadow (foxtail meadow): 4 (6-10 (Severe damages))
Herbicidal effects Redroot pigweed (redroot pigweed): 3 (11-40 (Medium damages))
Herbicidal effects Johnsongrass (johnsongrass): 5 (0-5 (Death))
Inhibitory activity (%) Pea [3]: 0%
Injury Peanut (peanut): 0 (91-100 (No damages))
Injury Soybean (soybean): 0 (91-100 (No damages))
Injury Cotton (cotton): 0 (91-100 (No damages))
Injury Rice (rice [4]): 0 (91-100 (No damages))
Herbicidal effects Sagittaria Pygmaea (Sagittaria pygmaea): 5 (0-5 (Death))
Herbicidal effects Barnyardgrass (barnyardgrass [5]): 5 (0-5 (Death))
Herbicidal effects Bulrush (bulrush): 4 (6-10 (Severe damages))
Inhibitory activity (%) Barnyardgrass [6]: 35%
